The values below come from patent US20040209906A1, “Composition comprising ketanserin AND AN ALKANOYL L-CARNITINE FOR THE TREATMENT OF CRPS” (Sigma-Tau industrie Farmaceutiche Riunite S.p.A., priority 1998, published 2004).

The subject of assay [1] is CRPS. Conditions: in vivo; cited from earlier work.
The next assay relates to CRPS patients. The assay can be described thus: intravenous ketanserin treatment of CRPS patients (bolus plus infusion). The format is in vivo. The method, then:
All i.v. treatments were performed after at least 15 minutes of acclimatisation at constant temperature (20-23° C.). The temperature of the affected limb was recorded with Hewlett Packard electro-skin probe between digit 4 and 5. In addition continues photoplethysmograpy of the affected hand (digit 2) or foot (digit 1), blood pressure and hearth rate were recorded. All patients received a bolus of 10 mg of ketanserin i.v. in a running saline infusion. Ketanserin administration was continued by rate of 4 mg per hour.

Assay [2] has as its system CRPS. The following applies: ketanserin alone; cited from earlier work.
Where [3] appears, read: after the intravenous treatment with ketanserin.

The structures appear in SMILES notation.

Consider `C[S+](C)[O-]` [dimethyl sulfoxide], for which, in the assay on CRPS [1], the “efficacy of therapeutic treatment in CRPS” value is given as “efficacious only during acute CRPS”; the “therapeutic result for symptoms caused by hyperpathia and allodinia” value is “without any therapeutic result”.
On to `O=C(c1ccc(F)cc1)C1CCN(CCn2c(=O)[nH]c3ccccc3c2=O)CC1` [ketanserin], for which, in the assay on CRPS patients (setting [3]), the skin temperature entry is given as “normalised” and the “symptom of small vein” value is “disappeared”. The “peripheral circulation of the affected limb” value in the assay on CRPS patients (all patients, after the intravenous treatment with ketanserin (10 mg bolus, then 4 mg per hour)) is on record as “normalised”. The “treatment of CRPS symptoms” value with CRPS [2] is “possible to treat most of symptoms, but not those caused by hyperpathia and allodinia”.
